Experimental data taken from PubChem BioAssay AID248 (DTP/NCI, 2004).
Several values for one entry are separate records, joined by “and”; a condition that tells them apart may be missing. Identical values can stand only once. Inconclusive results and toxic doses are left out. No stated cut-off is given here; in the data, active means T/C of 150% or more; inactive means T/C below 125%.

Tested on: L1210 leukemia ip in BDF1 mice, survival T/C
Experiment: NCI In Vivo Anticancer Drug Screen. Data for tumor model L1210 Leukemia (intraperitoneal) in B6D2F1 (BDF1) mice
Conditions: endpoint: mean survival time, higher = longer survival
Outline: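 Value reflects the ratio of survival in compound-treated mice to survival in vehicle-treated controls, with both groups carrying the same transplanted tumor.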

[1] = dose: 100.0 mg/kg/injection, schedule: Q01DX009 (ip), vehicle: saline with Tween-80
[2] = dose: 100.0 mg/kg/injection, schedule: Q04DX003 (ip), vehicle: saline with Tween-80
[3] = dose: 200.0 mg/kg/injection, schedule: Q04DX003 (ip), vehicle: saline with Tween-80
[4] = dose: 400.0 mg/kg/injection, schedule: Q04DX003 (ip), vehicle: saline with Tween-80
[5] = dose: 75.0 mg/kg/injection, schedule: Q01DX001 (ip), vehicle: saline
[6] = dose: 150.0 mg/kg/injection, schedule: Q01DX001 (ip), vehicle: saline
[7] = dose: 100.0 mg/kg/injection, schedule: Q01DX009 (ip), vehicle: Klucel (hydroxypropylcellulose) (HPC)
[8] = dose: 100.0 mg/kg/injection, schedule: Q04DX003 (ip), vehicle: Klucel (hydroxypropylcellulose) (HPC)
[9] = dose: 200.0 mg/kg/injection, schedule: Q01DX009 (ip), vehicle: Klucel (hydroxypropylcellulose) (HPC)
[10] = dose: 200.0 mg/kg/injection, schedule: Q04DX003 (ip), vehicle: Klucel (hydroxypropylcellulose) (HPC)
[11] = dose: 400.0 mg/kg/injection, schedule: Q04DX003 (ip), vehicle: Klucel (hydroxypropylcellulose) (HPC)
[12] = dose: 12.5 mg/kg/injection, schedule: Q04DX003 (ip), vehicle: saline with Tween-80
[13] = dose: 50.0 mg/kg/injection, schedule: Q04DX003 (ip), vehicle: saline with Tween-80
[14] = dose: 100.0 mg/kg/injection, schedule: Q01DX001 (ip), vehicle: carboxymethylcellulose (CMC)
[15] = dose: 200.0 mg/kg/injection, schedule: Q01DX001 (ip), vehicle: carboxymethylcellulose (CMC)
[16] = dose: 400.0 mg/kg/injection, schedule: Q01DX001 (ip), vehicle: carboxymethylcellulose (CMC)
[17] = dose: 400.0 mg/kg/injection, schedule: Q04DX002 (ip), vehicle: saline with Tween-80

Measured: T/C

O=c1[nH]cnc2c1ncn2CCCOc1ccccc1
inactive: dose: 100.0 mg/kg/injection, schedule: Q04DX002 (ip), vehicle: Klucel (hydroxypropylcellulose) (HPC) 91 % of control | dose: 200.0 mg/kg/injection, schedule: Q04DX002 (ip), vehicle: Klucel (hydroxypropylcellulose) (HPC) 88 % of control | dose: 400.0 mg/kg/injection, schedule: Q04DX002 (ip), vehicle: Klucel (hydroxypropylcellulose) (HPC) 88 % of control

Cc1ccc(CCl)cc1
inactive: [1] 102 % of control | [2] 100 % of control | dose: 200.0 mg/kg/injection, schedule: Q01DX009 (ip), vehicle: saline with Tween-80 102 % of control | [3] 104 % of control | [4] 102 % of control

O=c1c2ccccc2[nH]c2cc(-n3nnc4ccccc4c3=O)ccc12
inactive: [5] 88 % of control | [6] 88 % of control | dose: 300.0 mg/kg/injection, schedule: Q01DX001 (ip), vehicle: saline 98 % of control

O=S(=O)(/N=C1\C=CC=C\C1=N/S(=O)(=O)c1ccccc1)c1ccccc1
inactive: dose: 100.0 mg/kg/injection, schedule: Q01DX001 (ip), vehicle: saline with Tween-80 103 % of control | dose: 200.0 mg/kg/injection, schedule: Q01DX001 (ip), vehicle: saline with Tween-80 100 % of control | dose: 400.0 mg/kg/injection, schedule: Q01DX001 (ip), vehicle: saline with Tween-80 92 % of control

O=C1NNC(=O)NN1
inactive: dose: 50.0 mg/kg/injection, schedule: Q01DX009 (ip), vehicle: Klucel (hydroxypropylcellulose) (HPC) 97 % of control | [7] 103 % of control | [8] 100 % of control and 101 % of control | [9] 105 % of control | [10] 95 % of control | [11] 94 % of control

O=C(NC(CSC(=O)c1ccccc1)C(=O)O)OCc1ccccc1 (stereo not given)
inactive: [7] 104 % of control | [8] 101 % of control | [9] 93 % of control | [10] 95 % of control | [11] 95 % of control

CCC(C)(O)C#CC#CC(C)(O)CC (stereo not given)
inactive: dose: 6.25 mg/kg/injection, schedule: Q01DX009 (ip), vehicle: saline with Tween-80 93 % of control | dose: 12.5 mg/kg/injection, schedule: Q01DX009 (ip), vehicle: saline with Tween-80 100 % of control | [12] 101 % of control | dose: 25.0 mg/kg/injection, schedule: Q01DX009 (ip), vehicle: saline with Tween-80 96 % of control | dose: 25.0 mg/kg/injection, schedule: Q04DX003 (ip), vehicle: saline with Tween-80 97 % of control | [13] 87 % of control | [7] 93 % of control | [8] 103 % of control | [9] 101 % of control | [10] 106 % of control | dose: 400.0 mg/kg/injection, schedule: Q01DX009 (ip), vehicle: Klucel (hydroxypropylcellulose) (HPC) 102 % of control | [11] 104 % of control

Oc1cccc2cccnc12.[Cu+].[O-]c1cccc2cccnc12
inactive: dose: 2.5 mg/kg/injection, schedule: Q01DX009 (ip), vehicle: saline 97 % of control | dose: 2.5 mg/kg/injection, schedule: Q04DX003 (ip), vehicle: alcohol 98 % of control | dose: 5.0 mg/kg/injection, schedule: Q01DX009 (ip), vehicle: saline 108 % of control | dose: 5.0 mg/kg/injection, schedule: Q04DX003 (ip), vehicle: alcohol 112 % of control | dose: 10.0 mg/kg/injection, schedule: Q01DX009 (ip), vehicle: saline 98 % of control | dose: 10.0 mg/kg/injection, schedule: Q04DX003 (ip), vehicle: alcohol 104 % of control

CC(C)N1C(Nc2ccccn2)C(C)(C)C(C)(C)C1Nc1ccccn1 (stereo not given)
inactive: dose: 100.0 mg/kg/injection, schedule: Q04DX002 (ip), vehicle: gum acacia 110 % of control | dose: 200.0 mg/kg/injection, schedule: Q04DX002 (ip), vehicle: gum acacia 120 % of control | dose: 400.0 mg/kg/injection, schedule: Q04DX002 (ip), vehicle: gum acacia 97 % of control

C[N+](C)(C)C1CCCCC1
inactive: [5] 110 % of control and 106 % of control | [6] 105 % of control and 106 % of control

Cc1ccc(CSC(=N)N)cc1
inactive: [14] 104 % of control

CC(C)=NNC(=O)c1ccccc1
inactive: [12] 94 % of control | dose: 50.0 mg/kg/injection, schedule: Q01DX009 (ip), vehicle: saline with Tween-80 110 % of control | [13] 96 % of control | [1] 113 % of control | [2] 108 % of control and 110 % of control | [3] 124 % of control | [4] 96 % of control

CC(Cl)CN(Cc1c(O)ccc2ccccc12)CC(C)Cl (stereo not given)
inactive: [14] 96 % of control | [15] 107 % of control | [16] 101 % of control

CC(=O)C[P+](c1ccccc1)(c1ccccc1)c1ccccc1
inactive: dose: 12.0 mg/kg/injection, schedule: Q01DX009 (ip), vehicle: saline 96 % of control | dose: 12.0 mg/kg/injection, schedule: Q04DX003 (ip), vehicle: saline 104 % of control | dose: 25.0 mg/kg/injection, schedule: Q01DX009 (ip), vehicle: saline 96 % of control | dose: 25.0 mg/kg/injection, schedule: Q04DX003 (ip), vehicle: saline 94 % of control | dose: 50.0 mg/kg/injection, schedule: Q01DX009 (ip), vehicle: saline 112 % of control | dose: 50.0 mg/kg/injection, schedule: Q04DX003 (ip), vehicle: saline 98 % of control

c1ccc(COP(c2ccccc2)c2ccccc2)cc1
inactive: dose: 25.6 mg/kg/injection, schedule: Q04DX002 (ip), vehicle: saline with Tween-80 100 % of control | dose: 64.0 mg/kg/injection, schedule: Q04DX002 (ip), vehicle: saline with Tween-80 96 % of control | dose: 160.0 mg/kg/injection, schedule: Q04DX002 (ip), vehicle: saline with Tween-80 100 % of control | [17] 100 % of control

Cc1ccc(S(=O)(=O)Nc2cc(C)cc(CCN)c2C)cc1
inactive: dose: 50.0 mg/kg/injection, schedule: Q01DX001 (ip), vehicle: carboxymethylcellulose (CMC) 98 % of control | [14] 101 % of control | [15] 98 % of control | [16] 93 % of control

COC1=CC(=O)C(C2CC(=O)c3c(O)cc(OC4OC(COC5OC(C)C(O)C(O)C5O)C(O)C(O)C4O)cc3O2)=CC1=O (stereo not given)
inactive: dose: 100.0 mg/kg/injection, schedule: Q01DX009 (ip), vehicle: saline 95 % of control | [2] 103 % of control | dose: 200.0 mg/kg/injection, schedule: Q01DX009 (ip), vehicle: saline 97 % of control | [3] 108 % of control | dose: 400.0 mg/kg/injection, schedule: Q01DX009 (ip), vehicle: saline 88 % of control | [4] 101 % of control

CCS(=O)(=O)N1CCCC(C)C1 (stereo not given)
inactive: dose: 100.0 mg/kg/injection, schedule: Q04DX002 (ip), vehicle: saline with Tween-80 105 % of control | dose: 200.0 mg/kg/injection, schedule: Q04DX002 (ip), vehicle: saline with Tween-80 92 % of control | [17] 92 % of control

COc1ccc(/C=C(\S)C(=O)O)cc1
inactive: dose: 100.0 mg/kg/injection, schedule: Q01DX001 (ip), vehicle: saline 96 % of control | dose: 200.0 mg/kg/injection, schedule: Q01DX001 (ip), vehicle: saline 118 % of control | dose: 1040.0 mg/kg/injection, schedule: Q01DX001 (ip), vehicle: saline 111 % of control
